# The SangsterLogP compilation
# Test: method code SF, from DOI: 10.1039/p29920001643
row,logP,Structure (SMILES)
1,1.42,Nc1c(-c2ccccc2)no[n+]1[O-]
2,1.77,[O-][n+]1onc(-c2ccccc2)c1CO
3,2.22,Cc1no[n+]([O-])c1Cc1ccccc1
4,2.92,O=Cc1c(-c2ccccc2)no[n+]1[O-]
5,2.74,Cc1no[n+]([O-])c1Sc1ccccc1
6,2.59,Cc1nonc1-c1ccccc1
7,2.16,Cc1no[n+]([O-])c1-c1ccccc1
8,2.03,Cc1c(S(=O)(=O)c2ccccc2)no[n+]1[O-]
9,1.81,Nc1nonc1-c1ccccc1
10,1.92,OCc1nonc1-c1ccccc1
11,2.7,[O-][n+]1onc(Cl)c1-c1ccccc1
12,1.47,Nc1no[n+]([O-])c1-c1ccccc1
13,2.08,Cc1c(Cc2ccccc2)no[n+]1[O-]
14,1.64,[O-][n+]1onc(CO)c1-c1ccccc1
15,1.5,Cc1c(S(=O)c2ccccc2)no[n+]1[O-] (stereo unspecified)
16,2.61,O=Cc1no[n+]([O-])c1-c1ccccc1
17,3.64,[O-][n+]1onc(-c2ccccc2)c1-c1ccccc1
18,1.75,Cc1no[n+]([O-])c1S(=O)c1ccccc1 (stereo unspecified)
19,1.29,Cc1no[n+]([O-])c1C=O
20,2.17,Cc1c(-c2ccccc2)no[n+]1[O-]
21,3.2,Clc1nonc1-c1ccccc1

# Continued, molecule first:
row,Structure (SMILES),logP
1,Cc1nonc1[N+](=O)[O-],0.97
2,c1ccc2nsnc2c1,1.98
3,COC(=O)Nc1nonc1C,0.42
4,Cc1nonc1S(=O)(=O)c1ccccc1,2.36
5,c1cnon1,0.16
6,c1ccc2nonc2c1,1.69
7,CCc1nonc1C,1.18
8,CC(=O)c1no[n+]([O-])c1C,0.98
9,Cc1nsnc1C,1.28
10,Cc1nonc1Sc1ccccc1,2.92
11,[O-][n+]1onc(Cc2ccccc2)c1Cc1ccccc1,3.65
12,Cc1nonc1S(=O)c1ccccc1 (stereo unspecified),1.76
13,Cc1no[n+]([O-])c1C,0.23
14,COC(=O)c1nonc1C,0.94
15,Nc1nonc1NC(=O)c1ccccc1,1.41
16,Cc1nonc1Cc1ccc([N+](=O)[O-])cc1,2.21
17,CC(=O)c1c(C)no[n+]1[O-],0.8
18,CCS(=O)(=O)c1no[n+]([O-])c1C,0.65
19,Cc1nonc1C,0.71
20,Cc1nonc1C(N)=O,0.31

row,Structure (SMILES),logP
1,O=[N+]([O-])c1nonc1-c1ccccc1,2.63
2,Cc1no[n+]([O-])c1N,-0.32
3,Cc1no[n+]([O-])c1Cl,0.9
4,CCNc1nonc1N,0.51
5,Cc1no[n+]([O-])c1C(N)=O,0.36
6,CNC(=O)c1nonc1C,0.56
7,Cc1c(N)no[n+]1[O-],-0.17
8,Cc1c(Cl)no[n+]1[O-],1.02
9,Cc1nonc1N,0.09
10,CCCc1nonc1C,1.71
11,c1ccc(-c2nonc2-c2ccccc2)cc1,3.83
12,[O-][n+]1onc2ccccc21,1.43
13,CC(=O)Nc1nonc1N,-0.23
14,Cc1c(C=O)no[n+]1[O-],1.02
15,COC(=O)c1no[n+]([O-])c1C,0.56
16,CNC(=O)Nc1nonc1C,0.3
17,Nc1nonc1N,-0.49
18,Cc1c(C(N)=O)no[n+]1[O-],0.03
19,CC(=O)Nc1nonc1C,0.17
20,COC(=O)c1c(C)no[n+]1[O-],0.69
